Tested on: cultured rat pituitary cells
Assay: in vitro inhibition of growth hormone secretion by cultured rat pituitary cells (radioimmunoassay)
Format: cell-based
Conditions: three hours at 37° C in Eagles medium, control 441±12
Procedure: The activity of the undecapeptide of this invention was established in both in vitro and in vivo testing procedures, employing modifications of the techniques disclosed by Penso et al., Tissue Culture in Biological Research, Elsevier, 1963, p. 98; Berson et al., Metabolism, 13, 1135(1964).
The in vitro tests were conducted by covering cultured rat pituitary cells contained in petri dishes with five milliliter portions of the undecapeptide, as its diacetate salt, in Eagles medium for three hours at 37° C. Three Petri dishes were employed for each solution concentration. The amount of growth hormone produced by the cultured pituitary cells is then compared with growth hormone produced by non-treated cells prepared in identical manner, via growth hormone radioimmunoassay. The difference between the growth hormone produced by treated and non-treated pituitary cells establishes the amount of inhibition by the compound under study.
The cultured pituitary cells are prepared by excising and mincing rat pituitary glands followed by enzymatic separation of the cells (collagenase and hyaluronidase) and culture on synthetic nutrient media. When the cells attach themselves to the bottom of the plastic petri dish and cover the nutrient surface, they are washed with Eagles medium containing only inorganic salts, glucose and antibiotics in which state they are ready for use as above described.
The activity of the undecapeptide of this invention was compared in vitro with somatostatin with the following results in which the concentration valves given are in nanograms/milliliter: […]

## C[C@H](N)C(=O)NCC(=O)N[C@H]1CSSC[C@@H](C(=O)O)NC(=O)[C@H](CO)NC(=O)[C@H]([C@@H](C)O)NC(=O)[C@H](Cc2ccccc2)NC(=O)[C@H]([C@@H](C)O)NC(=O)[C@H](CCCCN)NC(=O)[C@H](Cc2c[nH]c3ccccc23)NC(=O)[C@H](Cc2ccccc2)NC(=O)[C@H](Cc2ccccc2)NC(=O)[C@H](CC(N)=O)NC(=O)[C@H](CCCCN)NC1=O [somatostatin]
Compound concentration 10 ng/ml
  Growth Hormone Secreted: 260 ± 8 ng/mL
Compound concentration 50 ng/ml
  Growth Hormone Secreted: 271 ± 22 ng/mL
Compound concentration 100 ng/ml
  Growth Hormone Secreted: 250 ± 13 ng/mL

— patent US4113714A, “[Des-Ala^1, Gly^2 -desamino-Cys^3 ]somatostatin” (American Home Products Corporation, priority 1975, dated 1978)
